Consider one compound from article PMC7206119, “RIP1 inhibition blocks inflammatory diseases but not tumor growth or metastases” (Cell Death and Differentiation, 2019).

Assay in all cases: biochemical
What all share (set-up): DiscoverX kinase panel, active-site competition binding (KINOMEscan type), percent of control at one concentration
What all share (conditions): competition binding, percent of control

For test [1], the target named is IRAK4 (Homo sapiens, UniProt Q9NWZ3). From the text: (§1) To investigate the potential therapeutic benefit of inhibiting RIP1, we developed GNE684 or (S)-N-((S)-7-methoxy-1-methyl-2-oxo-2,3,4,5-tetrahydro-1H-pyrido[3,4-b]azepin-3-yl)-5-phenyl-6,7-dihydro-5H-pyrrolo[1,2-b][1,2,4]triazole-2-carboxamide with cross-species potency against RIP1, exquisite kinase selectivity, and favorable pharmacological properties (Fig. 1a–h, S1, Tables S1 and S2, SI file 1). […] (Fig. 1b, S1, and Table S1). […] GNE684 inhibited human RIP1 potently in vitro, and mouse and rat RIP1 with slightly less potency (Fig. 1d). Accordingly, it inhibited TNF-induced necroptosis in human HT-29, mouse L929, or rat H9c2 cells (Fig. 1e). The cellular potency of GNE684 was confirmed in a human whole blood assay using TBZ (TNF, IAP antagonist BV6, and pan-caspase inhibitor zVAD) or LZ (LPS plus zVAD) to trigger necroptosis and the release of IL-1α and IL-1β (Fig. 1f).

Test [2] has as its target T1, TRKC (Homo sapiens, UniProt Q16288).
T1 construct: gene NTRK3
Text: as §1

In test [3] the target is T2, CDK11 (Homo sapiens, UniProt Q9BWU1).
T2 construct: gene CDK19
Text: as §1

Test [4] deals with T3, MLK2 (Homo sapiens, UniProt Q02779).
T3 construct: gene MAP3K10
Text: as §1

Test [5] addresses T4, PCTK2 (Homo sapiens, UniProt Q00537).
T4 construct: gene CDK17
Text: as §1

Test [6] has as its target T5, DCAMKL1 (Homo sapiens, UniProt O15075).
T5 construct: gene DCLK1
Text: as §1

Test [7] has as its target FLT3(ITD,F691L) (Homo sapiens, UniProt P36888, F691L/ITD).
Text: as §1

Test [8] addresses T6, RSK1(Kin.Dom.1-N-terminal) (Homo sapiens, UniProt Q15418).
T6 construct: gene RPS6KA1; Kin.Dom.1-N-terminal
Text: as §1

Test [9] deals with CDKL2 (Homo sapiens, UniProt Q92772).
Text: as §1

Test [10] addresses DDR2 (Homo sapiens, UniProt Q16832).
Text: as §1

The target in test [11] is BMPR1A (Homo sapiens, UniProt P36894).
Text: as §1

Test [12] deals with ALK (Homo sapiens, UniProt Q9UM73).
Text: as §1

Test [13] deals with SYK (Homo sapiens, UniProt P43405).
Text: as §1

Test [14] addresses T7, MKK7 (Homo sapiens, UniProt O14733).
T7 construct: gene MAP2K7
Text: as §1

Test [15] deals with EPHA1 (Homo sapiens, UniProt P21709).
Text: as §1

Test [16] has as its target LRRK2(G2019S) (Homo sapiens, UniProt Q5S007, G2019S).
Text: as §1

Test [17] addresses T8, IKK-epsilon (Homo sapiens, UniProt Q14164).
T8 construct: gene IKBKE
Text: as §1

Test [18] concerns the target FGFR4 (Homo sapiens, UniProt P22455).
Text: as §1

Test [19] has as its target T9, ICK (Homo sapiens, UniProt Q9UPZ9).
T9 construct: gene CILK1
Text: as §1

The target of test [20] is ALK(L1196M) (Homo sapiens, UniProt Q9UM73, L1196M).
Text: as §1

Test [21] deals with T10, CDK4-cyclinD1 (Homo sapiens, UniProt P11802).
T10 construct: cyclinD1
Text: as §1

T7 sequence (O14733 whole entry): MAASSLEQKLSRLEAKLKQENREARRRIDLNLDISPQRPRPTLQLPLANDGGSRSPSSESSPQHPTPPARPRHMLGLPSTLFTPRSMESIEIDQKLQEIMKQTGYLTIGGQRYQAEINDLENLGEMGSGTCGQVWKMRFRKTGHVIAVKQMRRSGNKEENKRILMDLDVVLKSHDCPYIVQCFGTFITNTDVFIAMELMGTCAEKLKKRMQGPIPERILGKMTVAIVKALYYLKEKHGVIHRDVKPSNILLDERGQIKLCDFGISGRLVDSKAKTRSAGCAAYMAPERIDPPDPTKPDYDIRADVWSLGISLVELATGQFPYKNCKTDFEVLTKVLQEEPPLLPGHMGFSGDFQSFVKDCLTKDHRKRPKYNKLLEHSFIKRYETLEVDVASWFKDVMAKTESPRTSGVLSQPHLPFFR
T5 sequence (O15075 whole entry): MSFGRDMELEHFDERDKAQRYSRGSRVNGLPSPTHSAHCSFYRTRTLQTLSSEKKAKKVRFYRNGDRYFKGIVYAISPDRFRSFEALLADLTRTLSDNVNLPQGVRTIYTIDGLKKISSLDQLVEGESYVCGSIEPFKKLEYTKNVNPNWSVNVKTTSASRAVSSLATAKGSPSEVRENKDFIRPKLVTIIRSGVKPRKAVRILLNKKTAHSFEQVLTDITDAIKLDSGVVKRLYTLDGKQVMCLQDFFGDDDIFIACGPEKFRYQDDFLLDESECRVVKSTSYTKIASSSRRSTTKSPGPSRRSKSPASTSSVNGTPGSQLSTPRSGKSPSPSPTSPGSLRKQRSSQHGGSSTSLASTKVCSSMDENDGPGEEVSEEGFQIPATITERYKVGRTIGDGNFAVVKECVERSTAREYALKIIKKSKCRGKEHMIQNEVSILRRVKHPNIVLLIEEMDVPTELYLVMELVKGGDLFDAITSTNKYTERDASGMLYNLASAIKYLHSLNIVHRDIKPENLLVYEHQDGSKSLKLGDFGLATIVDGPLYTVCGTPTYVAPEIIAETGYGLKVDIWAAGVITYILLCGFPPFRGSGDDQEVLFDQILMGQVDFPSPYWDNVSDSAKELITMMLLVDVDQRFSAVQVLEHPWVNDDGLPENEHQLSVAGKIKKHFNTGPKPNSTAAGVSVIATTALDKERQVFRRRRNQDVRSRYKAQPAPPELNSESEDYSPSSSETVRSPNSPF
T9 sequence (Q9UPZ9 whole entry): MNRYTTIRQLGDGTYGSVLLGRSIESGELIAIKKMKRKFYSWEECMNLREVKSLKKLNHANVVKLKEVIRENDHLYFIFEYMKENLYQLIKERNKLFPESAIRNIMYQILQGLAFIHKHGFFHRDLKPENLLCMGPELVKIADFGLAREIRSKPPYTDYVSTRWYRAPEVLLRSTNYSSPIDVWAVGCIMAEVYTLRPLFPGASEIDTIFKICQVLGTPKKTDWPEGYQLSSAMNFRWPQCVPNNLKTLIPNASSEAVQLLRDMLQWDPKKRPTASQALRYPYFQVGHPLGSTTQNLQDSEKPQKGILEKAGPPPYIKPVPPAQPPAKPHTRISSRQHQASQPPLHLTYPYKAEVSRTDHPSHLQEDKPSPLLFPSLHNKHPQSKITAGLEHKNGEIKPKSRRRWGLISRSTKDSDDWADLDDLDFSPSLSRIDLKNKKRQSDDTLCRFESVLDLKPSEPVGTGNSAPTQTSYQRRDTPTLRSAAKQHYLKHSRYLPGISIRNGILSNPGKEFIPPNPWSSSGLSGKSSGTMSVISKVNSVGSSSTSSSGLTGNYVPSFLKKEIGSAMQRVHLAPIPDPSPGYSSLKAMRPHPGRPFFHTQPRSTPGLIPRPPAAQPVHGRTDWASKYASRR
T1 sequence (Q16288 whole entry): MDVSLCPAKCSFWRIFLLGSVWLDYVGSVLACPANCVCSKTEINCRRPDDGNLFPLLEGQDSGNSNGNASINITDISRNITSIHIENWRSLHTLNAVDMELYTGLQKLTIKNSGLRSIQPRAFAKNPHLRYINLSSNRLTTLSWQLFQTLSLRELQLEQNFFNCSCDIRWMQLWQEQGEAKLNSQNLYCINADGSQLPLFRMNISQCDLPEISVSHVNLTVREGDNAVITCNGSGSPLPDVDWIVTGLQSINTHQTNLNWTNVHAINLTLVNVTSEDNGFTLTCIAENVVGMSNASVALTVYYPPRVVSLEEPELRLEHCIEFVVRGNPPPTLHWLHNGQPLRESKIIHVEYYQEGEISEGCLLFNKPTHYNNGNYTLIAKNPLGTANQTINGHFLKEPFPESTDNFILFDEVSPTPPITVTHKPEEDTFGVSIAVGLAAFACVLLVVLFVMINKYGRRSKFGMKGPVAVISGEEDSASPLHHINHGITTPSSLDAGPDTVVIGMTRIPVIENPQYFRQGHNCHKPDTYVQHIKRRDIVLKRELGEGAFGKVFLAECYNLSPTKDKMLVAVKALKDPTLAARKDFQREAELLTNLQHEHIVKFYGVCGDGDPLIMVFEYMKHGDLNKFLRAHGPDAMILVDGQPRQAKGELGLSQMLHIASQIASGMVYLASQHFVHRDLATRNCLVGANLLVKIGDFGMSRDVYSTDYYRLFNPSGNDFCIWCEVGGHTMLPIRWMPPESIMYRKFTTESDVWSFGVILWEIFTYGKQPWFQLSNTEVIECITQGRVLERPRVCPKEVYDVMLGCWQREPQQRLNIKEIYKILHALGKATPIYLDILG
Chain of FGFR4 (P22455 whole entry): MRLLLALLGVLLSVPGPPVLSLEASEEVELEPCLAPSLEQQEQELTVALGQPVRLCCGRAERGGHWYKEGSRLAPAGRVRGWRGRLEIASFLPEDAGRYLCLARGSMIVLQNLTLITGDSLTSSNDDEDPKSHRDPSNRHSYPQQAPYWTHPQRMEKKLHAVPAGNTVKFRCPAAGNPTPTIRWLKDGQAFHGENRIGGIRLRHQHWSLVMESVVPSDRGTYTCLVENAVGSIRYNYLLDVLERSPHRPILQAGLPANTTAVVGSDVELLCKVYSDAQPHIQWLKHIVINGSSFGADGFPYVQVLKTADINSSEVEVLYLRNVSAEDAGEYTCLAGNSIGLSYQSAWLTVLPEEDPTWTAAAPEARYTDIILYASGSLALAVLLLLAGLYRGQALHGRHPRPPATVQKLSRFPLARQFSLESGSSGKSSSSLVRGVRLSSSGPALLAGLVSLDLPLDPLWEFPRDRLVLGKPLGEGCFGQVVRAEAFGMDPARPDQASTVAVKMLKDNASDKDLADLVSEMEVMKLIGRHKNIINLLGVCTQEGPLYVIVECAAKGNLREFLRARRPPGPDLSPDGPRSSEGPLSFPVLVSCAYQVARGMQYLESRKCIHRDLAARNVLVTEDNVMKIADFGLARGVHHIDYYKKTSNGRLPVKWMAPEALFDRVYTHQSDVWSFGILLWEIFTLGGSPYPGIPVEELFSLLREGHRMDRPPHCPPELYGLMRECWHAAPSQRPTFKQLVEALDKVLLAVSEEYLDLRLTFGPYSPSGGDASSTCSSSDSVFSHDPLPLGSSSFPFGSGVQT
T3 sequence (Q02779 whole entry): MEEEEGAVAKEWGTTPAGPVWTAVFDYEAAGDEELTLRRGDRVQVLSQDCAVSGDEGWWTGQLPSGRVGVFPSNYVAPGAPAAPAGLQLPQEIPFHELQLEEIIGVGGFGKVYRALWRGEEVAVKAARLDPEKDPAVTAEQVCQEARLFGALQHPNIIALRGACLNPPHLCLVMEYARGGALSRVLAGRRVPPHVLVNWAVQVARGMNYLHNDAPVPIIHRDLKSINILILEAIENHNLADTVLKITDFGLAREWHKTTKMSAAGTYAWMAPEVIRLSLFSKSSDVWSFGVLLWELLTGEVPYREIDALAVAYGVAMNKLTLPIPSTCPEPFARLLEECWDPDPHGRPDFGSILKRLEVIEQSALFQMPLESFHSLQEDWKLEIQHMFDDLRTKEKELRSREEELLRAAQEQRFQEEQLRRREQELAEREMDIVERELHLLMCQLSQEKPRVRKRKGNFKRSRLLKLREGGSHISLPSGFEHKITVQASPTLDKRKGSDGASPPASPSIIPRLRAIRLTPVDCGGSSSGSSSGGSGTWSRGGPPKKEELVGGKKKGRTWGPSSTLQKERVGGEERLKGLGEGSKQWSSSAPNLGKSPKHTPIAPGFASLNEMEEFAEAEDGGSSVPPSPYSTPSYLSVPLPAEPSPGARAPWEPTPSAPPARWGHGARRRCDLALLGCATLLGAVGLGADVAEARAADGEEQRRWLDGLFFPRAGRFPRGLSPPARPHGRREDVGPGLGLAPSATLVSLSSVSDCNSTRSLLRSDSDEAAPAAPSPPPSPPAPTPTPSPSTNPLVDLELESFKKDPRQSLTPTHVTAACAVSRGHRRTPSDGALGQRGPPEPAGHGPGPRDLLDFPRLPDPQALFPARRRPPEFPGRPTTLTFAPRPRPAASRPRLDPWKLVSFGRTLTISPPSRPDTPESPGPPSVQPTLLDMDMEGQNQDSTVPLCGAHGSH
T4 sequence (Q00537 whole entry): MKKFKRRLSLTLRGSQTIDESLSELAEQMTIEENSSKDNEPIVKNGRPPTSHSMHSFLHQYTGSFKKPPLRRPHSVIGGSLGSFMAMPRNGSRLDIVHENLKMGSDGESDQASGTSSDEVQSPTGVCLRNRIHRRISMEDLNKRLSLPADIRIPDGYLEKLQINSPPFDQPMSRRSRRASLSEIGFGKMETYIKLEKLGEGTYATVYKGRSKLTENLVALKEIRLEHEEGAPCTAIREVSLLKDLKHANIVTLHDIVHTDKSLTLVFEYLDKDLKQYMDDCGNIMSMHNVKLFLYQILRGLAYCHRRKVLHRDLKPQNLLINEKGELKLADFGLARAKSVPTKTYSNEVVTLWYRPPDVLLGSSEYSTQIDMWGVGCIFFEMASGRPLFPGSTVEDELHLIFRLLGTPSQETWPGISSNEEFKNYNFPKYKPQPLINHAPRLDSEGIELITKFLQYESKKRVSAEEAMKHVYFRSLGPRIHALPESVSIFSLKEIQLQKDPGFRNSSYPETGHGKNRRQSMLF

On to `COc1cc2c(cn1)N(C)C(=O)[C@@H](NC(=O)c1nc3n(n1)[C@H](c1ccccc1)CC3)CC2` [GNE684, (S)-N-((S)-7-methoxy-1-methyl-2-oxo-2,3,4,5-tetrahydro-1H-pyrido[3,4-b]azepin-3-yl)-5-phenyl-6,7-dihydro-5H-pyrrolo[1,2-b][1,2,4]triazole-2-carboxamide], for which the remaining binding at 10 µM is 100% in test [1]; 69% in test [2]; 81% in test [3]; 72% in test [4]; 100% in test [5]; 67% in [6]. The remaining binding at 10 µM was 98% in [7]; 98% in test [8]; 95% in [9]; 100% in test [10]; 91% in test [11]; 81% in test [12]. Moreover, the remaining binding at 10 µM in test [13] amounted to 75%; in [14] it was 98%; in test [15], 93%; in [16], 97%; in [17], 88%; in [18] it was 88%. In addition, the remaining binding at 10 µM in test [19] is 93%; in test [20], 78%; in test [21], 87%.
